For 15 molecules, TGI and GI50 results are on record in PubChem BioAssay (NCI).

Assay in all cases: inhibition of tumour cell growth, NCI panel, 48 h
In experiment [1] the test system is HCT-15 colon.
In experiment [2] the test system is HOP-62 NSCLC.
Experiment [3] has as its system OVCAR-4 ovarian.
Experiment [4] relates to RPMI-8226 leukemia.
The subject of experiment [5] is SF-268 CNS.
The test system of experiment [6] is T-47D breast.
For experiment [7], the system named is UACC-62 melanoma.
Experiment [8] concerns NCI-H460 lung.
Experiment [9] concerns U251 CNS.
The subject of experiment [10] is BT-549 breast.

Structures are written as SMILES.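 Each compound was tested at five concentrations against cells in 96-well plates for 48 hours. GI50 = concentration required for 50% inhibition of growth. At the TGI there is no net growth.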 Some results are limits rather than exact numbers.

In the case of `COC(=O)c1c(C(=O)OC)c2ccccn2c1-c1cc(C)cc2c1C(=O)C=CC2=O`, the TGI stood at 15.6 µM in experiment [1]; 21.7 µM in experiment [2]; 18.8 µM in [3]; 8.9 µM in experiment [4]; 20.8 µM in [5]; 7.83 µM in experiment [6]. In addition, the TGI in [7] was found to be 17.7 µM.
For `NCCCc1nonc1C(=O)O`, the TGI in [1], in experiment [2], in [8], in [3], in experiment [4] and in [5] was > 100 µM each time. In addition, the TGI in [6], in [9] and in experiment [7] was > 100 µM in each case.
`COc1ccc(C2OC2C(=O)C23CC4CC(CC(C4)C2)C3)cc1` (configuration not stated): the TGI in [1], in [2], in experiment [8], in experiment [3], in experiment [4] and in [5] was > 100 µM in each case. Besides, the results for the TGI in [6], in experiment [9] and in experiment [7] were > 100 µM, > 100 µM and 49 µM, respectively.
As for `C(#C[C@@]12CCC[C@@H]1NCO2)c1ccc2c(c1)OCO2`, the TGI in experiment [1], in experiment [2], in experiment [8], in experiment [3], in experiment [4] and in experiment [5] was > 100 µM in each case. Besides, the TGI in experiment [6], in experiment [9] and in [7] was > 100 µM each time.
As to `O[C@@H]1CCCCN1Cc1cc2cc3c(cc2c2cc(OCc4ccccc4)ccc12)OCO3`, the GI50 in [10] is 1730 nM; in experiment [1] it was 1810 nM; in experiment [2] it was 1550 nM; in [8] it was 1370 nM; in experiment [3], 1450 nM; in [4] it was 1410 nM. Moreover, the values for the GI50 in experiment [5], in experiment [9] and in experiment [7] were 1260 nM, 1520 nM and 1890 nM, respectively. The TGI in experiment [10] came to 3.31 µM; in experiment [1], 4.37 µM; in experiment [2] it was 2.89 µM; in experiment [8], 2.76 µM; in [3], 2.9 µM; in experiment [4] it was 3.38 µM. Besides, the TGI came out at 2.61 µM in experiment [5], 2.95 µM in experiment [9] and 3.46 µM in experiment [7].
Turning to `O=c1[nH]nc(Nc2ccc(Cl)cc2)c2nnn(-c3ccc([N+](=O)[O-])cc3)c12`, the TGI in experiment [10], in [1], in experiment [2], in [8], in experiment [3] and in experiment [4] was > 100 µM throughout. In addition, the TGI is > 100 µM in [5] and 46 µM in experiment [9].
As to `O=C1C/C(=C\c2ccccc2)C(=O)c2ccccc2N1`, the TGI amounted to 44.7 µM in experiment [1]; 56.6 µM in experiment [2]; 62 µM in [8]; 49.1 µM in experiment [3]; 98.4 µM in [5]; 78.1 µM in experiment [6]. The TGI in experiment [7] amounted to 40.5 µM.
For `CCO/C=N\C1=C(C#N)SC2=N/C(=C\c3ccco3)C(=O)N21`, the TGI in experiment [1], in experiment [2], in [3], in experiment [4], in experiment [5] and in [6] was > 100 µM throughout. For the same molecule, the TGI in [9] is > 100 µM.
With `CC(C)OP(=O)(OC(C)C)C(=Nc1ccc(N=C(NNc2ccc([N+](=O)[O-])cc2)P(=O)(OC(C)C)OC(C)C)cc1)NNc1ccc([N+](=O)[O-])cc1`, the TGI in experiment [1], in [2], in [3], in experiment [4], in [5] and in experiment [9] was > 100 µM throughout. In experiment [7], this molecule came in with a TGI of 6.7 µM.
As to `CCCCc1c2c([n+]([O-])c3c1CCCC3)CCCC2`, the TGI in [1], in experiment [2], in experiment [8], in [4], in [5] and in [9] was > 100 µM each time.
As for `N#CC(C#N)=CNC(=S)Nc1ccc(S(=O)(=O)Nc2nccs2)cc1`, the TGI in [10], in [1], in experiment [2], in [8], in [3] and in experiment [5] was > 100 µM in each case. Besides, the TGI in experiment [6], in experiment [9] and in experiment [7] was > 100 µM each time.
With `C/C(=N\NC(N)=O)C(CN1CCOCC1)C(c1ccccc1)c1c(O)c2ccccc2oc1=O` (configuration not stated), the TGI in [10], in experiment [1], in experiment [3], in [4], in experiment [5] and in experiment [9] was > 100 µM in each case. Moreover, in experiment [7], the TGI was > 100 µM.
Consider `CC1CC(=O)C(CC(=O)O)[C@H]1C(C(=O)C(=O)Nc1cc(Cl)ccc1Cl)[N+](=O)[O-]` (some centres not stated), for which the TGI in experiment [1], in experiment [2], in experiment [8], in experiment [4], in experiment [5] and in experiment [9] was > 100 µM each time. In experiment [7], the TGI is > 100 µM.
For the molecule `COc1cccc(O)c1-c1cc(=O)c2c(O)c(OC)c(OC)c(OC)c2o1`, the TGI is 73.6 µM in experiment [10]; > 100 µM in experiment [1]; 44.4 µM in [2]; 52.1 µM in [8]; > 100 µM in experiment [3]; 58.4 µM in [4]. Besides, the TGI is > 100 µM in experiment [5], > 100 µM in experiment [9] and 32.8 µM in experiment [7].
On to `c1ccc2sc(C3(N4CCCCCC4)CCCCC3)cc2c1`, for which the TGI in [10] is 61.2 µM; in [1], 53.6 µM; in experiment [2] it was 86.8 µM; in [8] it was 45.1 µM; in experiment [3], > 100 µM; in [5], 52.5 µM. The TGI was found to be 35 µM in [9] and 45.7 µM in experiment [7].
